Molecular target: T1, trypsin-activated recombinant human renin (Homo sapiens, UniProt P00797)
T1 sequence (P00797 67-406): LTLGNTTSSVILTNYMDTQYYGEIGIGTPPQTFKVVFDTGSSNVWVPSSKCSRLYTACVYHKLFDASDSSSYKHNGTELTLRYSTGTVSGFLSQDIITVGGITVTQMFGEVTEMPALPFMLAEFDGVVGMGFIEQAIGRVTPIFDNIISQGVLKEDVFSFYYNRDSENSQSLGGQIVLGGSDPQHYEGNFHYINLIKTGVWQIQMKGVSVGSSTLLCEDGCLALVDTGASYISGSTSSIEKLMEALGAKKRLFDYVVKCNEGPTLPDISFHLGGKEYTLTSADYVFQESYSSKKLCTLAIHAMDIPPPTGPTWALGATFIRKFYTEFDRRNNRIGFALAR
Experiment: IC50 for renin, fluorescence of quenched peptide substrate (protocols of Example 3 or 4)
Assay type: biochemical
Details: protocols described in Example 3 or 4; class according to the IC50 values; read-out: IC50 for renin, class in words
Protocol: The sequence of this peptide corresponds to the sequence of human angiotensinogen. The following test protocol is used: All reactions are carried out in a flat bottom white opaque microtiter plate. A 4 μL aliquot of 400 μM renin substrate (DABCYL-γ-Abu-[…]EDANS) in 192 μL assay buffer (50 mM BES, 150 mM NaCl, 0.25 mg/mL bovine serum albumin, pH7.0) is added to 4 μL of test compound in DMSO at various concentrations ranging from 10 μM to 1 nM final concentrations. Next, 100 μL of trypsin-activated recombinant human renin (final enzyme concentration of 0.2-2 nM) in assay buffer is added, and the solution is mixed by pipetting. The increase in fluorescence at 495 nm (excitation at 340 nm) is measured for 60-360 min at rt using a Perkin-Elmer Fusion microplate reader. The slope of a linear portion of the plot of fluorescence increases as a function of time is then determined, and the rate is used for calculating percent inhibition in relation to uninhibited control. […]
All reactions are carried out in a low volume, black, 384 well microtiter plate (Greiner Bio-one). […] After 2 hours of reaction at room temperature, the plates were read on a Viewlux™ (Perkin Elmer) with an excitation/emission of 485/530 nm, and using a 505 nm cutoff filter. […]
The IC50 values of the disclosed compounds for renin were determined according to the protocols described in Example 3 or 4. […]

| SMILES | IC50 [nM] |
| --- | --- |
| COCCCCC(O)(CCN(C)C(=O)[C@H]1C[C@@H](N)[C@@H](O)C1)c1cccc(Cl)c1-c1cccc(C)c1 (stereo partly drawn) [Compound 1, (1S,3R,4S)-3-amino-N-[3-(6-chloro-3′-methyl-2-biphenylyl)-3-hydroxy-7-(methyloxy)heptyl]-4-hydroxy-N-methylcyclopentanecarboxamide] | 0.01 to 50 |
| COCCCC[C@](O)(CCN(C)C(=O)[C@H]1C[C@@H](N)[C@@H](O)C1)c1cccc(Cl)c1-c1cccc(C)c1 [Compound 11, (1S,3R,4S)-3-amino-N—((S)-3-(6-chloro-3′-methylbiphenyl-2-yl)-3-hydroxy-7-methoxyheptyl)-4-hydroxy-N-methylcyclopentanecarboxamide] | 0.01 to 50 |

From patent US20100168243A1, “Renin Inhibitors” (priority 2007, published 2010)
